Values quoted from earlier work as cited in patent publication US6174513A, “Stabilization of peptides and proteins for radiopharmaceutical use” (priority 1998, dated 2001).

Tested on: somatostatin receptors in a variety of human tumors

- Binding affinity to somatostatin receptors: very high binding affinity
Compound: C[C@@H](O)[C@@H]1NC(=O)[C@H](CCCCN)NC(=O)[C@@H](Cc2c[nH]c3ccccc23)NC(=O)[C@H](Cc2ccccc2)NC(=O)[C@@H](NC(=O)[C@H](N)Cc2ccccc2)CSSC[C@@H](C(=O)N[C@H](CO)[C@@H](C)O)NC1=O [Octreotide]
